Measured values from patent publication US10131652B2, “Pyrimidinyloxy benzene derivatives as herbicides” (E. I. DU PONT DE NEMOURS AND COMPANY, priority 2014, dated 2018).
Like-named read-outs stand apart in the source and are kept apart here.

Experiments:
Assay in all cases: Test F pre-/postemergence plant response
Type in all cases: in vivo
[1] = tested on: palmer pigweed (Amaranthus palmeri); conditions: Amaranthus palmeri, scale 0 to 100, read-out: Plant response rating, Pigweed, Palmer
Summary of the method: (§1)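 Visual control ratings were scored 0 (no effect) to 100 (complete control) versus untreated plants after 14–21 greenhouse days. Compounds, formulated in a surfactant-containing non-phytotoxic solvent, were applied both to silt loam at planting (preemergence) and to 1- to 4-leaf plants 2–18 cm tall (postemergence).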

[2] = tested on: giant foxtail (Setaria faberii); conditions: Setaria faberi, pre-emergence, scale 0 to 100, read-out: Plant response rating, Foxtail, Giant
Summary of the method: as §1

[3] = tested on: barnyardgrass (Echinochloa crus-galli); conditions: Echinochloa crus-galli, scale 0 to 100, read-out: Plant response rating, Barnyardgrass
Summary of the method: as §1

[4] = tested on: arrowleaf sida (Sida rhombifolia); conditions: Sida rhombifolia, scale 0 to 100, read-out: Plant response rating, Arrowleaf Sida
Summary of the method: as §1

[5] = tested on: waterhemp (common waterhemp, Amaranthus rudis); conditions: Amaranthus tuberculatus, scale 0 to 100, read-out: Plant response rating, Waterhemp
Summary of the method: as §1

[6] = tested on: morningglory (Ipomoea coccinea); conditions: Ipomoea, pre-emergence, scale 0 to 100, read-out: Plant response rating, Morningglory
Summary of the method: as §1

[7] = tested on: green foxtail (Setaria viridis); conditions: Setaria viridis, pre-emergence, scale 0 to 100, read-out: Plant response rating, Foxtail, Green
Summary of the method: as §1

[8] = tested on: sandbur (southern sandbur, Cenchrus echinatus); conditions: Cenchrus echinatus, scale 0 to 100, read-out: Plant response rating, Sandbur
Summary of the method: as §1

[9] = tested on: dayflower (Virginia (VA) dayflower, Commelina virginica); conditions: Commelina virginica, scale 0 to 100, read-out: Plant response rating, Dayflower, VA
Summary of the method: as §1

[10] = tested on: lambsquarters (Chenopodium album); conditions: Chenopodium album, pre-emergence, scale 0 to 100, read-out: Plant response rating, Lambsquarters
Summary of the method: as §1

[11] = tested on: johnsongrass (Sorghum halepense); conditions: Sorghum halepense, pre-emergence, scale 0 to 100, read-out: Plant response rating, Johnsongrass
Summary of the method: as §1

[12] = post-emergence, 8 g ai/ha Postemergence
[13] = post-emergence, 16 g ai/ha Postemergence
[14] = post-emergence, 31 g ai/ha Postemergence
[15] = post-emergence, 62 g ai/ha Postemergence
[16] = post-emergence, 125 g ai/ha Postemergence
[17] = pre-emergence, 8 g ai/ha Preemergence
[18] = pre-emergence, 16 g ai/ha Preemergence
[19] = pre-emergence, 31 g ai/ha Preemergence
[20] = pre-emergence, 125 g ai/ha Preemergence
[21] = pre-emergence, 62 g ai/ha Preemergence

SMILES: FC(F)(F)c1cc(-c2ccccc2Oc2ncc(Cl)cn2)no1 [Compound 200, 5-chloro-2-[2-[5-(trifluoromethyl)-3-isoxazolyl]phenoxy]pyrimidine]
- pest or weed control at 8 g/ha [1, 12]: 85%
- pest or weed control at 16 g/ha [1, 13]: 95%
- pest or weed control at 31 g/ha [1, 14]: 98%
- pest or weed control at 62 g/ha [1, 15]: 100%
- pest or weed control at 125 g/ha [1, 16]: 100%
- pest or weed control at 8 g/ha [1, 17]: 0%
- pest or weed control at 16 g/ha [1, 18]: 85%
- pest or weed control at 31 g/ha [1, 19]: 100%
- pest or weed control at 125 g/ha [1, 20]: 100%
- pest or weed control at 62 g/ha ([1]; pre-emergence, Preemergence): 100%
- pest or weed control at 8 g/ha ([2]; 8 g ai/ha Preemergence): 0%
- pest or weed control at 16 g/ha ([2]; 16 g ai/ha Preemergence): 35%
- pest or weed control at 31 g/ha ([2]; 31 g ai/ha Preemergence): 65%
- pest or weed control at 62 g/ha ([2]; 62 g ai/ha Preemergence): 100%
- pest or weed control at 125 g/ha ([2]; 125 g ai/ha Preemergence): 100%
- pest or weed control at 8 g/ha [3, 12]: 0%
- pest or weed control at 16 g/ha [3, 13]: 0%
- pest or weed control at 31 g/ha [3, 14]: 0%
- pest or weed control at 62 g/ha [3, 15]: 15%
- pest or weed control at 125 g/ha [3, 16]: 25%
- pest or weed control at 8 g/ha [3, 17]: 0%
- pest or weed control at 16 g/ha [3, 18]: 0%
- pest or weed control at 31 g/ha [3, 19]: 0%
- pest or weed control at 62 g/ha [3, 21]: 30%
- pest or weed control at 125 g/ha [3, 20]: 60%
- pest or weed control at 8 g/ha [4, 12]: 65%
- pest or weed control at 16 g/ha [4, 13]: 75%
- pest or weed control at 31 g/ha [4, 14]: 85%
- pest or weed control at 62 g/ha [4, 15]: 95%
- pest or weed control at 125 g/ha [4, 16]: 95%
- pest or weed control at 8 g/ha [4, 17]: 0%
- pest or weed control at 16 g/ha [4, 18]: 65%
- pest or weed control at 31 g/ha [4, 19]: 100%
- pest or weed control at 62 g/ha [4, 21]: 100%
- pest or weed control at 125 g/ha [4, 20]: 100%
- pest or weed control at 8 g/ha [5, 12]: 75%
- pest or weed control at 16 g/ha [5, 13]: 80%
- pest or weed control at 31 g/ha [5, 14]: 95%
- pest or weed control at 62 g/ha [5, 15]: 98%
- pest or weed control at 125 g/ha [5, 16]: 100%
- pest or weed control at 8 g/ha [5, 17]: 70%
- pest or weed control at 16 g/ha [5, 18]: 98%
- pest or weed control at 31 g/ha [5, 19]: 100%
- pest or weed control at 125 g/ha [5, 20]: 100%
- pest or weed control at 62 g/ha ([5]; pre-emergence, Preemergence): 100%
- pest or weed control at 8 g/ha ([6]; 8 g ai/ha Preemergence): 0%
- pest or weed control at 16 g/ha ([6]; 16 g ai/ha Preemergence): 0%
- pest or weed control at 31 g/ha ([6]; 31 g ai/ha Preemergence): 0%
- pest or weed control at 125 g/ha ([6]; 125 g ai/ha Preemergence): 15%
- pest or weed control at 62 g/ha ([6]; Preemergence): 0%
- pest or weed control at 8 g/ha ([7]; 8 g ai/ha Preemergence): 0%
- pest or weed control at 16 g/ha ([7]; 16 g ai/ha, Preemergence): 10%
- pest or weed control at 31 g/ha ([7]; 31 g ai/ha, Preemergence): 98%
- pest or weed control at 125 g/ha ([7]; 125 g ai/ha, Preemergence): 100%
- pest or weed control at 62 g/ha ([7]; Preemergence): 100%
- pest or weed control at 8 g/ha [8, 12]: 0%
- pest or weed control at 16 g/ha [8, 13]: 0%
- pest or weed control at 31 g/ha [8, 14]: 0%
- pest or weed control at 62 g/ha [8, 15]: 0%
- pest or weed control at 125 g/ha [8, 16]: 5%
- pest or weed control at 8 g/ha [8, 17]: 0%
- pest or weed control at 16 g/ha [8, 18]: 5%
- pest or weed control at 31 g/ha [8, 19]: 5%
- pest or weed control at 125 g/ha [8, 20]: 75%
- pest or weed control at 62 g/ha ([8]; pre-emergence, Preemergence): 40%
- pest or weed control at 8 g/ha [9, 12]: 0%
- pest or weed control at 16 g/ha [9, 13]: 0%
- pest or weed control at 31 g/ha [9, 14]: 25%
- pest or weed control at 62 g/ha [9, 15]: 15%
- pest or weed control at 125 g/ha [9, 16]: 35%
- pest or weed control at 8 g/ha [9, 17]: 0%
- pest or weed control at 16 g/ha [9, 18]: 15%
- pest or weed control at 31 g/ha [9, 19]: 50%
- pest or weed control at 62 g/ha [9, 21]: 70%
- pest or weed control at 125 g/ha [9, 20]: 90%
- pest or weed control at 8 g/ha ([10]; 8 g ai/ha Preemergence): 0%
- pest or weed control at 16 g/ha ([10]; 16 g ai/ha, Preemergence): 0%
- pest or weed control at 31 g/ha ([10]; 31 g ai/ha, Preemergence): 98%
- pest or weed control at 125 g/ha ([10]; 125 g ai/ha, Preemergence): 100%
- pest or weed control at 62 g/ha ([10]; Preemergence): 98%
- pest or weed control at 8 g/ha ([11]; 8 g ai/ha Preemergence): 0%
- pest or weed control at 16 g/ha ([11]; 16 g ai/ha Preemergence): 0%
- pest or weed control at 31 g/ha ([11]; 31 g ai/ha Preemergence): 5%
- pest or weed control at 125 g/ha ([11]; 125 g ai/ha Preemergence): 90%
- pest or weed control at 62 g/ha ([11]; Preemergence): 35%
